Experimental data as given in publication PMC2010087, “Cytotoxic and clastogenic effects of soluble chromium compounds on mammalian cell cultures” (British Journal of Cancer, 1979).
Like-named read-outs stand apart in the source and are kept apart here.

How the values were obtained:
CHO cell cultures [1] = format: cell-based, Chinese hamster
Procedure: (§1) MATERIALS AND METHODS Cells.-Cultures of the established pseudo- diploid BHK21 Syrian hamster fibroblast line, and of the established pseudodiploid CHO Chinese hamster ovary fibroblast line were grown at 37?C as monolayers, in Eagle's minimal essential medium supplemented with 10% calf serum. Cultures in glass Petri dishes were maintained in a humidified 5% C02 atmosphere. […] Cell growth was estimated on the basis of the nucleic-acid content (RNA+ DNA) of each culture, deter- mined 5 days after seeding, when controls became confluent. To this purpose nucleotides and nucleic acids were sequentially extracted by differential hydrolyses with perchloric acid (PCA): soluble nucleotides of the intracellular pool were extracted with 5% PCA at 4?C for 30 min, RNA was hydrolysed with 10%/ PCA at 37?C for 1 h, and DNA was hydrolysed with 10% PCA at 70?C for 2 h. Soluble nucleotides and RNA were measured by UV absorption at 260 nm, DNA was measured at 268 nm, with a Hitachi 200-20 double-beam spectrophotometer. In order to label nucleic acids, the cultures were incu- bated with tritiated nucleosides (Radio- chemical Centre, Amersham, England): thy- midine-6-H3 ([3H]-TdR; 2 Ci/mM) and uridine-5-H3 ([3H]-UR; 2-5 Ci/mM) were used at the concentration of 2 µCi/ml. After labelling, nucleotides and nucleic acids were extracted and determined as above, and the radioactivity of liquid samples (0-5 ml) of the different fractions was counted in a Packard Tri-Carb 2425 scintillation counter, using 10 ml of Bray's solution. As stated else- where (Levis et al., 1978a, b) the extraction procedure with PCA allows both quantitative determinations and radioactivity counting of different fractions (soluble nucleotides, RNA and DNA) obtained from the same culture. […] The medium was not changed until the 8th day, when the plates were stained with acetic gentian violet, and scored for survivors. All colonies visible to the naked eye were counted as survivors. Chromosome preparations.-Suspensions of CHO cells were prepared by trypsinization of log-phase cultures and diluted with growth medium in 100mm Petri plates. Each plate received about 8 x 10^5 cells in 10 ml of medium, which was changed 24 h after seeding. At this time 3 x 10^-5 M bromodeoxyuridine (BUdR, Sigma, St Louis, Mo., U.S.A.) was added and the cells were allowed to incor- porate the analogue for two division cycles (30 h). […] The medium was not changed until the cells were collected 30 h later. During the last 4 h of treatment, 0 4 Hg/ml of colchicine (Merck, Darmstadt, Germany) were added. At the end of treatment, metaphase cells were dislodged by gently pipetting the overlaying medium and collected by centrifuging the suspension at 900 rev/min for 5 min. The cell pellet was suspended in 5 ml hypotonic buffer (10% sodium citrate) at 37?C for 10 min and fixed in ethanol/acetic acid (3/1). Fixed cells were heated at 89?C for 10 min in IM NaH2PO4 (pH 8) and stained with Giemsa (Korenberg & Freedlender, 1974). […] Chromium compounds and cell treatments.- Hexavalent chromium (Cr6+) was tested as K2Cr207 (potassium dichromate), K2CrO4 (potassium chromate) and Na2CrO4.4H20 (sodium chromate) (Mallinckrodt, St Louis, Mo., U.S.A.), as Na2Cr2O7.2H20 (sodium dichromate) (Riedel De Haen, Hannover, Germany), as CrO3 (chromic acid) (Merck, Darmstadt, Germany), and as CaCrO4 (cal- cium chromate) (BDH, Poole, England).

CHO cells [2] = assay: CHO cell survival (macroscopic colonies); format: cell-based, Chinese hamster; conditions: seeded in presence of Cr, treated up to 8th day
Procedure: MATERIALS AND METHODS Cells.-Cultures of the established pseudo- diploid BHK21 Syrian hamster fibroblast line, and of the established pseudodiploid CHO Chinese hamster ovary fibroblast line were grown at 37?C as monolayers, in Eagle's minimal essential medium supplemented with 10% calf serum. Cultures in glass Petri dishes were maintained in a humidified 5% C02 atmosphere. […] Cell growth was estimated on the basis of the nucleic-acid content (RNA+ DNA) of each culture, deter- mined 5 days after seeding, when controls became confluent. […] Soluble nucleotides and RNA were measured by UV absorption at 260 nm, DNA was measured at 268 nm, with a Hitachi 200-20 double-beam spectrophotometer. […] After labelling, nucleotides and nucleic acids were extracted and determined as above, and the radioactivity of liquid samples (0-5 ml) of the different fractions was counted in a Packard Tri-Carb 2425 scintillation counter, using 10 ml of Bray's solution. As stated else- where (Levis et al., 1978a, b) the extraction procedure with PCA allows both quantitative determinations and radioactivity counting of different fractions (soluble nucleotides, RNA and DNA) obtained from the same culture. […] The medium was not changed until the 8th day, when the plates were stained with acetic gentian violet, and scored for survivors. All colonies visible to the naked eye were counted as survivors. […]

BHK cells = conditions: chronic exposure
Procedure: as §1

CHO cell cultures [3] = test system: CHO cell cultures
Procedure: as §1

CHO cells [4] = conditions: 30 h, 1.0 ug/ml Cr6+
Procedure: as §1

## [Ca+2].[O]=[Cr](=[O])([O-])[O-] [CaCrO4, calcium chromate]
CHO cell cultures [1]
  Cell growth (%): 1%
  RNA/DNA: 4.8

## CC(=O)[O-].CC(=O)[O-].CC(=O)[O-].[Cr+3] [Cr(COOCH3)3, chromium acetate]
CHO cells [2]
  50% lethal dose (LD50): 150 µg/mL
BHK cells
  cytotoxic action on cell growth: weakly cytotoxic
CHO cell cultures [1]; 5 days in presence of compound, [Cr] 312.0 ug/ml
  Cell growth (%): 1%

## [Cl][Cr]([Cl])[Cl] [CrCl3, chromium chloride]
BHK cells; even at 300 tg/ml Cr3+ (maximum solubility in complete growth medium)
  cytotoxic action on cell growth: little or no cytotoxic action
CHO cell cultures [1]; 5 days in presence of compound, [Cr] 262.0 ug/ml
  Cell growth (%): 61%

## O=S(=O)([O-])[O-].O=S(=O)([O-])[O-].[Cr+3].[K+] [CrK(SO4)2, chromium potassium sulphate]
BHK cells
  cytotoxic action on cell growth: weakly cytotoxic
CHO cell cultures [1]; 5 days in presence of compound, [Cr] 209.0 ug/ml
  Cell growth (%): 62%
CHO cell cultures [1]; 5 days, [Cr] 209.0 ug/ml
  RNA/DNA: 1-4

## [O]=[Cr](=[O])=[O] [CrO3, chromic acid]
CHO cell cultures [1]
  Cell growth (%): 2%

## [K+].[K+].[O]=[Cr](=[O])([O-])[O][Cr](=[O])(=[O])[O-] [K2Cr2O7, potassium dichromate]
CHO cell cultures [1]
  Cell growth (%): 4%

## [K+].[K+].[O]=[Cr](=[O])([O-])[O-] [K2CrO4, potassium chromate]
CHO cell cultures [3]
  Sister chromatid exchanges per chromosome: 0.50 + 0-01
  Sister chromatid exchanges per metaphase: 9-80 + 0-31
CHO cell cultures [1]
  Cell growth (%): 5%

## [Na+].[Na+].[O]=[Cr](=[O])([O-])[O][Cr](=[O])(=[O])[O-] [Na2Cr2O7, sodium dichromate]
CHO cells [4]
  increase of chromosome aberrations: about 10 fold
CHO cell cultures [1]
  Cell growth (%): 3%
  RNA/DNA: 6-9

## [Na+].[Na+].[O]=[Cr](=[O])([O-])[O-] [Na2CrO4, sodium chromate]
CHO cell cultures [3]
  Sister chromatid exchanges per chromosome: 059 + 0-20
  Sister chromatid exchanges per metaphase: 10-62 + 0-33
CHO cell cultures [1]
  Cell growth (%): 6%
